Source: the NIST ThermoML archive (doi:10.1021/je0499317)
Numbers after ± are expanded uncertainties.

Assay: excess molar enthalpy (molar enthalpy of mixing); xn = mol fraction of the nth substance listed
Conditions: 298.15 K, 101.33 kPa, Liquid

CCCCCC#N [hexanenitrile] + C[S+](C)[O-]
Conditions | excess molar enthalpy [kcal/mol]
x2 = 0.07452 | 0.0546 ± 0.00122
x2 = 0.09271 | 0.0665 ± 0.00141
x2 = 0.1474 | 0.1 ± 0.00191
x2 = 0.1952 | 0.125 ± 0.00232
x2 = 0.2583 | 0.154 ± 0.00287
x2 = 0.3135 | 0.174 ± 0.00311
x2 = 0.3528 | 0.185 ± 0.00335
x2 = 0.4343 | 0.201 ± 0.00359
x2 = 0.4908 | 0.207 ± 0.00359
x2 = 0.5806 | 0.205 ± 0.00359
x2 = 0.7154 | 0.181 ± 0.00311
x2 = 0.842 | 0.129 ± 0.00237
x2 = 0.8892 | 0.0984 ± 0.00189
x2 = 0.9559 | 0.0454 ± 0.00108
x2 = 0.9855 | 0.0149 ± 0.000598

CCCCCCCCCCCC#N [n-dodecanenitrile] + CSCS(C)=O
Conditions | excess molar enthalpy [kcal/mol]
x2 = 0.03008 | 0.0375 ± 0.000956
x2 = 0.03781 | 0.0476 ± 0.0011
x2 = 0.09203 | 0.107 ± 0.00203
x2 = 0.1008 | 0.114 ± 0.00213
x2 = 0.1789 | 0.178 ± 0.00311
x2 = 0.207 | 0.198 ± 0.00335
x2 = 0.2152 | 0.204 ± 0.00359
x2 = 0.3197 | 0.261 ± 0.0043
x2 = 0.3517 | 0.27 ± 0.00454
x2 = 0.5024 | 0.3 ± 0.00502
x2 = 0.5857 | 0.301 ± 0.00502
x2 = 0.7084 | 0.277 ± 0.00454
x2 = 0.8115 | 0.223 ± 0.00382
x2 = 0.8979 | 0.148 ± 0.00263
x2 = 0.9592 | 0.0667 ± 0.00141
x2 = 0.9865 | 0.0238 ± 0.000741

CCCCCCCCCCCC#N [n-dodecanenitrile] + C[S+](C)[O-]
Conditions | excess molar enthalpy [kcal/mol]
x2 = 0.02506 | 0.0231 ± 0.000741
x2 = 0.02612 | 0.0261 ± 0.000765
x2 = 0.07491 | 0.0764 ± 0.00155
x2 = 0.09988 | 0.104 ± 0.00198
x2 = 0.1665 | 0.168 ± 0.00287
x2 = 0.1791 | 0.185 ± 0.00335
x2 = 0.1948 | 0.194 ± 0.00335
x2 = 0.2522 | 0.243 ± 0.00406
x2 = 0.3366 | 0.293 ± 0.00502
x2 = 0.4308 | 0.327 ± 0.0055
x2 = 0.562 | 0.341 ± 0.00574
x2 = 0.7592 | 0.298 ± 0.00502
x2 = 0.8602 | 0.231 ± 0.00406
x2 = 0.8956 | 0.193 ± 0.00335
x2 = 0.9461 | 0.114 ± 0.00215
x2 = 0.9649 | 0.08 ± 0.0016
x2 = 0.9886 | 0.0287 ± 0.000813

CCCCCCCCC#N [nonanenitrile] + CSCS(C)=O
Conditions | excess molar enthalpy [kcal/mol]
x2 = 0.01839 | 0.0199 ± 0.000669
x2 = 0.03954 | 0.0411 ± 0.001
x2 = 0.08357 | 0.0801 ± 0.0016
x2 = 0.1186 | 0.108 ± 0.00206
x2 = 0.175 | 0.149 ± 0.00263
x2 = 0.2257 | 0.178 ± 0.00311
x2 = 0.2686 | 0.199 ± 0.00335
x2 = 0.3721 | 0.232 ± 0.00406
x2 = 0.3812 | 0.234 ± 0.00406
x2 = 0.4654 | 0.25 ± 0.0043
x2 = 0.5564 | 0.253 ± 0.0043
x2 = 0.6409 | 0.241 ± 0.00406
x2 = 0.779 | 0.195 ± 0.00335
x2 = 0.8417 | 0.155 ± 0.00287
x2 = 0.8806 | 0.126 ± 0.00232
x2 = 0.9058 | 0.106 ± 0.00201
x2 = 0.9564 | 0.0531 ± 0.0012
x2 = 0.9784 | 0.0266 ± 0.000789

CCCCCCCCC#N [nonanenitrile] + C[S+](C)[O-]
Conditions | excess molar enthalpy [kcal/mol]
x2 = 0.05896 | 0.0512 ± 0.00117
x2 = 0.07322 | 0.0623 ± 0.00134
x2 = 0.09784 | 0.0826 ± 0.00165
x2 = 0.1285 | 0.107 ± 0.00203
x2 = 0.1721 | 0.141 ± 0.00263
x2 = 0.1898 | 0.153 ± 0.00263
x2 = 0.2365 | 0.183 ± 0.00311
x2 = 0.2408 | 0.187 ± 0.00335
x2 = 0.2698 | 0.204 ± 0.00359
x2 = 0.2836 | 0.211 ± 0.00359
x2 = 0.3841 | 0.252 ± 0.0043
x2 = 0.4577 | 0.272 ± 0.00454
x2 = 0.5425 | 0.285 ± 0.00478
x2 = 0.5442 | 0.285 ± 0.00478
x2 = 0.5569 | 0.285 ± 0.00478
x2 = 0.703 | 0.271 ± 0.00454
x2 = 0.7734 | 0.245 ± 0.00406
x2 = 0.8496 | 0.197 ± 0.00335
x2 = 0.8991 | 0.15 ± 0.00263
x2 = 0.939 | 0.103 ± 0.00196
x2 = 0.9712 | 0.0531 ± 0.0012
x2 = 0.9917 | 0.017 ± 0.000621

CCCCCCCC#N [octanenitrile] + CSCS(C)=O
Conditions | excess molar enthalpy [kcal/mol]
x2 = 0.02232 | 0.0208 ± 0.000693
x2 = 0.06732 | 0.064 ± 0.00136
x2 = 0.1083 | 0.0967 ± 0.00186
x2 = 0.16 | 0.133 ± 0.00239
x2 = 0.2232 | 0.17 ± 0.00311
x2 = 0.3476 | 0.216 ± 0.00382
x2 = 0.5207 | 0.237 ± 0.00406
x2 = 0.6218 | 0.228 ± 0.00382
x2 = 0.7086 | 0.206 ± 0.00359
x2 = 0.7769 | 0.177 ± 0.00311
x2 = 0.869 | 0.122 ± 0.00225
x2 = 0.9129 | 0.0878 ± 0.00172
x2 = 0.9266 | 0.0774 ± 0.00158
x2 = 0.9548 | 0.0497 ± 0.00115
x2 = 0.9879 | 0.0154 ± 0.000621

CCCCCCCC#N [octanenitrile] + C[S+](C)[O-]
Conditions | excess molar enthalpy [kcal/mol]
x2 = 0.02667 | 0.0195 ± 0.000669
x2 = 0.037 | 0.0293 ± 0.000813
x2 = 0.1176 | 0.0892 ± 0.00174
x2 = 0.18 | 0.134 ± 0.00239
x2 = 0.2399 | 0.169 ± 0.00311
x2 = 0.3293 | 0.213 ± 0.00359
x2 = 0.3877 | 0.233 ± 0.00406
x2 = 0.4654 | 0.251 ± 0.0043
x2 = 0.552 | 0.261 ± 0.0043
x2 = 0.6233 | 0.256 ± 0.0043
x2 = 0.7022 | 0.244 ± 0.00406
x2 = 0.8267 | 0.189 ± 0.00335
x2 = 0.8785 | 0.149 ± 0.00263
x2 = 0.9546 | 0.068 ± 0.00143
x2 = 0.9616 | 0.057 ± 0.00124
x2 = 0.992 | 0.0135 ± 0.000574

CCCCCCCCCCCCCC#N [tetradecanenitrile] + CSCS(C)=O
Conditions | excess molar enthalpy [kcal/mol]
x2 = 0.03538 | 0.0412 ± 0.001
x2 = 0.05372 | 0.0689 ± 0.00143
x2 = 0.08438 | 0.103 ± 0.00196
x2 = 0.1289 | 0.153 ± 0.00263
x2 = 0.1565 | 0.177 ± 0.00311
x2 = 0.1984 | 0.21 ± 0.00359
x2 = 0.3348 | 0.281 ± 0.00478
x2 = 0.505 | 0.304 ± 0.00502
x2 = 0.6332 | 0.291 ± 0.00478
x2 = 0.6721 | 0.283 ± 0.00478
x2 = 0.8155 | 0.229 ± 0.00382
x2 = 0.8867 | 0.172 ± 0.00311
x2 = 0.9123 | 0.145 ± 0.00263
x2 = 0.9566 | 0.0871 ± 0.00172
x2 = 0.9858 | 0.0352 ± 0.000908

CCCCCCCCCCCCCC#N [tetradecanenitrile] + C[S+](C)[O-]
Conditions | excess molar enthalpy [kcal/mol]
x2 = 0.02407 | 0.0307 ± 0.000837
x2 = 0.06045 | 0.0671 ± 0.00141
x2 = 0.1219 | 0.133 ± 0.00239
x2 = 0.1415 | 0.154 ± 0.00263
x2 = 0.2193 | 0.219 ± 0.00382
x2 = 0.2527 | 0.244 ± 0.00406
x2 = 0.3063 | 0.279 ± 0.00478
x2 = 0.4181 | 0.323 ± 0.00526
x2 = 0.4877 | 0.339 ± 0.00574
x2 = 0.6186 | 0.345 ± 0.00574
x2 = 0.7619 | 0.311 ± 0.00526
x2 = 0.8716 | 0.229 ± 0.00382
x2 = 0.8962 | 0.201 ± 0.00359
x2 = 0.911 | 0.176 ± 0.00311
x2 = 0.9532 | 0.109 ± 0.00206
x2 = 0.9692 | 0.0793 ± 0.0016
x2 = 0.9809 | 0.0491 ± 0.00112
